Reference: US7338932B2, “Methods of modulating functions of polypeptide GalNAc-transferases and of screening test substances to find agents herefor, pharmaceutical compositions comprising such agents and the use of such agents for preparing medicaments” (Glycozym APS, priority 2000, dated 2008)
pIC50: −log10 of the molar value.

Experiments:
[1] = system: wild type CHO/MUC1sol-cloneC4; test: Secretion of MUC1, western blot of medium; assay type: cell-based, Chinese Hamster; settings: 1-2 mM; compared to control treated or non-treated cells
Protocol: In order to characterize the secreted MUC1 product SDS-PAGE western blot analysis of harvested culture medium of confluent cultures were performed. Ten to twenty μL culture supernatant was analysed directly or treated with 0.1 U/mL neuraminidase (C. Perfringes VI, Sigma) for 30-60 min at 37° C. Samples were mixed with SDS sample buffer, reduced with DTT, and run on precast 4-20% gels (Biorad). As shown in FIG. 9 anti-MUC1 antibodies detected two forms of MUC1 in the medium; a low molecular weight form migrating as 130-140 kd corresponding to unglycosylated product, and a high molecular weight form migrating above 250 kd. The high molecular weight form was sensitive to neuraminidase treatment as evidenced by a marked shift and retardation in migration. […]
Because GalNAcα-benzyl exerts separate effects on O-glycan processing and mucin expression, the use of the novel selective inhibitor of mucin expression, GalNAcβ-benzyl, allow analysis of mucin expression and secretion in different cell line models. […] Most human adenocarcinoma cell lines express and secret mucins and analysis with antibodies to detect protein expression or probes to detect mRNA can reveal the types and quantities of mucins. […] The inhibitory effect on mucin secretion can be quantified by a number of assays known to the skilled in the art including western blot, ELISA, gelfiltration, immunocapture, and other assays.

[2] = system: CHOldlD/MUC1F-clone2 cells; test: MUC1 expression in cell lysates, immunoprecipitation and SDS-PAGE western blot; assay type: cell-based, Chinese Hamster; settings: 2 mM, 48 hours
[3] = target: T1, GalNAc-T4 (Homo sapiens, UniProt Q8N4A0); test: Inhibition of glycosylation dependent (GalNAc-glycopeptide) activity of GalNAc-T4, MALDI-TOF time-course; assay type: biochemical; settings: 10 mM benzyl sugar
T1 construct: using the GalNAc-T4-sol construct that encodes residues 32-578 inserted into pT7T3U19; made in house; host or cells: High Five insect cells (baculovirus, pAcGP67)
T1 sequence (Q8N4A0 32-578): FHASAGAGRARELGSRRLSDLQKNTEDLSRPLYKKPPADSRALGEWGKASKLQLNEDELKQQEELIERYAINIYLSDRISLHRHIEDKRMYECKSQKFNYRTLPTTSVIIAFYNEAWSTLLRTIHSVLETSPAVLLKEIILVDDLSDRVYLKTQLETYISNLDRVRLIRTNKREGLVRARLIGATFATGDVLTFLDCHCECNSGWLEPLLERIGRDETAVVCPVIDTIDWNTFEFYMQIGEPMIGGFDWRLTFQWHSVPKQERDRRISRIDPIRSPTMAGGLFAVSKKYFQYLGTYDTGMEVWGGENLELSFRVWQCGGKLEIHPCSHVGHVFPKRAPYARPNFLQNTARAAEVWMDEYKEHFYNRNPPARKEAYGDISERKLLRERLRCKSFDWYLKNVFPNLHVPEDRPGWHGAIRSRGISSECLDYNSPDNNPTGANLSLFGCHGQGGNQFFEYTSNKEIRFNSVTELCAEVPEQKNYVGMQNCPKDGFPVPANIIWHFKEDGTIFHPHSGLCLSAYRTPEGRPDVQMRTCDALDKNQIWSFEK
Protocol: MALDI-TOF time-course in terminal reactions were performed in reactions of 25 μl containing 2.5 nmol acceptor (glyco)peptide, 40 nmol UDP-GalNAc, and 0.4 μg GalNAc-T4. Sampling of reactions (1 μl) were purified by nano-scale reversed-phase chromatography (Poros R3, PerSeptive Biosystem) and applied directly to the probe with matrix (41). The amount of GalNAc-transferase added was adjusted so that the reaction with the appropriate peptide was near completion in six hours. Reactions were incubated at 37° C. in a shaker bath. At times 0, 2 hours, and 16 hours a 1 μl aliquot was taken and purified. Mass spectra were acquired on either Voyager-DE mass spectrometer equipped with delayed extraction (Perseptive Biosystem Inc.). The matrix used was 2,5-dihydroxybenzoic acid (10 mg/ml, Hewlett-Packard) dissolved in a 2:1 mixture of 0.1% trifluoroacetic acid in 30% aqueous acetonitrile (Rathburn Ltd.).
Quantification of purified proteins was done by Coomassie stained SDS-PAGE and titration of immunoreactivity with the monoclonal antibody, UH6(4G2) (8). […] Wild-type GalNAc-T4 and mutant GalNAc-T4, GalNAc-T4^459H, were analysed with unglycosylated peptides (represented by PSGL-1) or GalNAc glycosylated glycopeptides (represented by GalNAc3TAP25V21) in reactions of 25 μl containing 2.5 nmol acceptor (glyco)peptide, 40 nmol UDP-GalNAc, and 0.4 μg GalNAc-T4. Time-course assays were motioned by MALDI-TOF. Sampling of reactions (1 μl) were purified by nano-scale reversed-phase chromatography (Poros R3, PerSeptive Biosystem) and applied directly to the probe with matrix. Evaluation of inhibition of the glycopeptide specificity of wild-type GalNAc-T4 with free sugars was performed to establish if the lectin domain recognized carbohydrate. […] Further, analysis was performed with 10 mM α-D-GalNAc-1-benzyl, αGlcNAc-benzyl, and fully occupied GalNAc-glycopeptide, GalNAc6TAP25, at 5 mM.

[4] = target: T2, secreted soluble GalNAc-T2 (sT2) (Homo sapiens, UniProt Q10471); test: Direct binding ELISA to GalNAc-MUC1 glycopeptide, competitive inhibition, sT2
T2 construct: HIS-tagged secreted human GalNAc-T2 and -T4 were prepared from pAC-GP67-T2-sol and pAC-GP67-T4-sol cDNA; 6xHis (N); thrombin cleavage site (N); T7 tag (N); made in house; host or cells: High Five insect cells (baculovirus)
T2 sequence (Q10471 52-571 limits assumed): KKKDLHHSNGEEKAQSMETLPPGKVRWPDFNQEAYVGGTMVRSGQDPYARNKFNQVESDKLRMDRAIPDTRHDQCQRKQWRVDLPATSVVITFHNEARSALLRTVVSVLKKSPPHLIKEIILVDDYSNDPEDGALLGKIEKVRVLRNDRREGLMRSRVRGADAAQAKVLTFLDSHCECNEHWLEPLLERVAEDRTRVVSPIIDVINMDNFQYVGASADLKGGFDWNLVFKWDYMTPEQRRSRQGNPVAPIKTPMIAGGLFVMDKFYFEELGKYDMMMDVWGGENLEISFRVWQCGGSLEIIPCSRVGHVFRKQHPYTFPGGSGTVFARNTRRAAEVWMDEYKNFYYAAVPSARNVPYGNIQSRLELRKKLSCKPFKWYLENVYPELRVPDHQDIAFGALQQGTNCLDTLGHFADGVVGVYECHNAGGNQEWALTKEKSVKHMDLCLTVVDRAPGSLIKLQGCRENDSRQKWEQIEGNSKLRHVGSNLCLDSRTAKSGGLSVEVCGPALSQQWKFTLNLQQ
Protocol: (§1) Protein biotinylation was made as previously reported^62. The pH of 1 ml purified protein (0.3 mg/ml) in PBS was adjusted to pH 9 with 1 M NaOH and 40 μl N-hydroxy-succinimidobiotin (Sigma) dissolved in DMF (10 mg/ml) was added. The solution was mixed end-over-end for 2 hours at room temperature, and dialyzed three times against PBS and an equal volume of glycerol was added. The biotinylated proteins were stored at −20° C. in 50% glycerol until use.
(§2) Direct binding ELISA assay was developed as follows: Polystyrene microtiter plates (Maxisorb, Nunc, Denmark) were coated with peptides or enzymatically glycosylated glycopeptides in PBS overnight at 4° C. Plates were washed and blocked with 0.1% Tween20 and 0.2% BSA in PBS for 1 h at room temperature, followed by incubation with biotinylated proteins in PBS with 0.05% Tween20 for 2 h at room temperature. After four washes with PBS, plates were incubated with 1:2,000 dilution streptavidin-HRP (Sigma) in PBS for 30 min at room temperature and washed four times with PBS. Development was performed with 0.5 mg/ml o-phenylenediamine and 0.02% H2O2 at room temperature for 15 min, and reaction stopped by adding 100 μl/well of 0.5 N H2SO4. Competitive inhibition assays were done at end-point titers of GalNAc-transferase proteins with one hour preincubations with inhibitor.
(§3) In binding studies using lectins without biotinylation antibodies to the HIS-tag and the T7-tag, or in some experiments antibodies raised to GalNAc-T2 and -T4 enzymes were used to detect binding.

[5] = target: T3, GalNAc-T2 lectin domain (T2ld) (Homo sapiens, UniProt Q10471); test: Direct binding ELISA to GalNAc-MUC1 glycopeptide, competitive inhibition, T2ld
T3 construct: made in house; host or cells: High Five insect cells (baculovirus, pAcGP67-A)
T3 sequence (Q10471 408-571): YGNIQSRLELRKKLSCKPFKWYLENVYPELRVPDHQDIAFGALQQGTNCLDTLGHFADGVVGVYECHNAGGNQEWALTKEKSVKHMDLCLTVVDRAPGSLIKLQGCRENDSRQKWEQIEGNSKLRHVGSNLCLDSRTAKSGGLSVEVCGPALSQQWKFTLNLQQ
Protocol: as §1, §2, §3

| Structure (SMILES) | Secreted MUC1 in medium [1] | MUC1 expression ([2]; IP HMFG2, blot 5E5) | SDS-PAGE migration of MUC1 (O-glycosylation) ([2]; cells grown in Gal and GalNAc, blot 5E5) | Inhibition of glycosylation dependent specificity of GalNAc-T4 [3] | pIC50 [4] | pIC50 [5] |
| --- | --- | --- | --- | --- | --- | --- |
| CC(=O)N[C@H]1[C@@H](OCc2ccccc2)O[C@H](CO)[C@H](O)[C@@H]1O [GalNAcα-benzyl] | inhibition of secreted MUC1 | significant reduction in MUC1 expression | marked shift in migration | – | – | – |
| CC(=O)N[C@H]1[C@@H](OCc2ccccc2)O[C@H](CO)[C@@H](O)[C@@H]1O [GlcNAcα-benzyl] | – | – | – | did not inhibit | < 1.00 | < 1.00 |
